Structures can show the parent of a compound that is named as a salt. Where two headings read alike, the source gives them in different places. Values belong to the compound of their own block, whether it stands above or below them.
Key:
[1] = assay type: physicochemical; settings: n-octanol/phosphate buffer, pH 7.4
Method: (§1) The partition coefficients of the salts prepared in Examples 1 to 5 between n-octanol and water are determined by the `shake-flask` method of Leo et at, Chem. Rev., 71(6), 525 (1971).
(§2) The n-octanol and aqueous phases are mutually saturated prior to conducting the experiment. The desferrioxamine-B sulphonic acid addition salt is dissolved in the aqueous phase at a concentration of 0.005 mol/l and the partition experiment is performed by shaking the vessel containing the two phases until an equilibrium has been achieved. […] After equilibrium has been achieved, the sample is centrifuged to enable phase separation. Both organic and aqueous phases are analysed for desferrioxamine-B content via extraction of an appropriate aliquot, quenching with an aqueous (for assay of the aqueous phase) or methanolic (for assay of the n-octanol phase) solution of FeCl3, and measurement of the absorption of the characteristic ferrioxamine-B chelate at ca. 450 nm. Respective calibration plots (absorbance vs. concentration of desferrioxamine-B sulphonic acid salt) for the assay of both aqueous and organic phases show a linear response over the concentration range studied. The results obtained are as follows:
The partition coefficients of the salts prepared in Examples 1 to 5 between n-octanol and an aqueous phosphate buffer at pH7.4 having an ionic strength of 0.31 mol/l are determined using the procedure of Examples 6-10. The results obtained are as follows:
The use of n-octanol/aqueous media partition coefficients as a model for the lipophilicity of drugs is well established (see the abovementioned Leo et al reference). The aqueous phase in Examples 11 to 15 simulates physiological conditions.

[2] = assay type: physicochemical; settings: n-octanol/water, 5000 µM
Method: as §1
as §2, with “follows: […]” for “follows:”

[3] = intrinsic dissolution of tablets, Langenbucher flow-through apparatus; assay type: physicochemical; settings: water, 25° C., listed as decanesulphonate
Method: Tablets are prepared from the salts of Examples 1 and 4 by compressing a mixture of 99 parts of the salt and 1 part of magnesium stearate in a 13mm die for 2 minutes under a pressure of 4×10^5 kPa. The intrinsic dissolution rates of the tablets are determined using a Langenbucher flow-through apparatus, with water at 25° C. as the dissolution medium. The amount of desferrioxamine-B dissolved in the medium is measured at intervals using a spectrophotometric assay at 215 nm.

[4] = system: Daudi cell line (B-cell lymphoma); assay: iron-chelation bioassay: growth inhibiting effect on cells through iron removal, [3H] Thymidine uptake; assay type: cell-based; settings: 72 hours, Control (0 μM): Ex 18 22297, Ex 19 23897, listed as decanesulphonate
Method: The iron-chelating properties of salts of the invention in a biological system are determined by means of a bioassay in which the growth inhibiting effect of the salts on cells through iron removal is measured by the uptake of radioactively labelled thymidine into the cells. The bioassay is carried out using a Daudi cell line (B-cell lymphoma), a Roswell Park Memorial Institute (RPMI) 1640 medium containing 1 µM ferric citrate and supplements as low iron washing medium and RPM11640 together with 5% by weight of foetal calf serum as passaging medium.
The cells are fed 24 hours before use. They are washed twice in the low iron washing medium to remove any excess iron and diluted with this medium to a concentration of 0.2×10^6 cells/0.180 ml. To 0.180 ml aliquots are added 0.02 ml of solutions of the desferrioxamine-B salts under test in phosphate-buffered saline (PBS) to give concentrations ranging from a Control containing no salt to a […] solution. The cells are then incubated at 37° C. in an atmosphere containing 5% by volume of carbon dioxide for 72 hours, being pulsed for the last 8 hours of that time with labelled [^3 H] Thymidine at 5 micro Ci/ml. The resulting cells are harvested and their radioactive disintegrations are counted for 10 minutes. The results are shown in the table below as the average of 4 separate experiments (except the Control result in Example 18 which is the average of 3 separate experiments).

[5] = in words, U.S. Pat. No. 3,247,197; cited from earlier work

Partition Coefficient [1]: 0.060
Partition Coefficient [2]: 0.366
% Desferrioxaine-B salt dissolved ([3]; 1 min): 1.01%
% Desferrioxaine-B salt dissolved ([3]; 2 min): 1.65%
% Desferrioxaine-B salt dissolved ([3]; 5 min): 2.90%
% Desferrioxaine-B salt dissolved ([3]; 10 min): 4.67%
% Desferrioxaine-B salt dissolved ([3]; 15 min): 6.17%
% Desferrioxaine-B salt dissolved ([3]; 20 min): 7.50%
% Desferrioxaine-B salt dissolved ([3]; 30 min): 9.97%
% Desferrioxaine-B salt dissolved ([3]; 50 min): 14.21%
% Desferrioxaine-B salt dissolved ([3]; 75 min): 18.80%
% Desferrioxaine-B salt dissolved ([3]; 100 min): 22.92%
% Desferrioxaine-B salt dissolved ([3]; 125 min): 26.62%
% Desferrioxaine-B salt dissolved ([3]; 150 min): 30.13%
% Desferrioxaine-B salt dissolved ([3]; 175 min): 33.49%
% Desferrioxaine-B salt dissolved ([3]; 200 min): 36.85%
% Desferrioxaine-B salt dissolved ([3]; 225 min): 39.97%
% Desferrioxaine-B salt dissolved ([3]; 250 min): 42.94%
% Desferrioxaine-B salt dissolved ([3]; 275 min): 45.87%
% Desferrioxaine-B salt dissolved ([3]; 300 min): 48.81%
SMILES: CC(=O)N(O)CCCCCNC(=O)CCC(=O)N(O)CCCCCNC(=O)CCC(=O)N(O)CCCCCN [Example 1, decane-1-sulphonate/salt of desferrioxamine-B]
Disintegrations Per Minute ([3H] Thymidine uptake) ([4]; 0.5 μM salt): 23603 Disintegrations Per Minute
Disintegrations Per Minute ([3H] Thymidine uptake) ([4]; 1 μM salt): 14161 Disintegrations Per Minute
Disintegrations Per Minute ([3H] Thymidine uptake) ([4]; 2 μM salt): 6847 Disintegrations Per Minute
Disintegrations Per Minute ([3H] Thymidine uptake) ([4]; 3 μM salt): 6599 Disintegrations Per Minute
Disintegrations Per Minute ([3H] Thymidine uptake) ([4]; 4 μM salt): 5445 Disintegrations Per Minute
Disintegrations Per Minute ([3H] Thymidine uptake) ([4]; 5 μM salt): 5139 Disintegrations Per Minute
Disintegrations Per Minute ([3H] Thymidine uptake) ([4]; 6 μM salt): 4382 Disintegrations Per Minute
Disintegrations Per Minute ([3H] Thymidine uptake) ([4]; 7.5 μM salt): 3262 Disintegrations Per Minute
Disintegrations Per Minute ([3H] Thymidine uptake) ([4]; 10 μM salt): 2172 Disintegrations Per Minute
Disintegrations Per Minute ([3H] Thymidine uptake) ([4]; 15 μM salt): 1101 Disintegrations Per Minute
Disintegrations Per Minute ([3H] Thymidine uptake) ([4]; 20 μM salt): 494 Disintegrations Per Minute

SMILES: CC(=O)N(O)CCCCCNC(=O)CCC(=O)N(O)CCCCCNC(=O)CCC(=O)N(O)CCCCCN [desferrioxamine-B]
ability to form stable complexes with trivalent metal ions [5]: marked ability to form stable complexes with trivalent metal ions, especially Fe^3+

— patent US5663201A, “Desferrioxamine-B salts” (CIBA-GEIGY Corporation, priority 1992, dated 1997)
